From PMC10077203, “Structure modification, antialgal, antiplasmodial, and toxic evaluations of a series of new marine-derived 14-membered resorcylic acid lactone derivatives” (Marine Life Science & Technology, 2021)
“And” between values parts separate entries of the source, which are not always exact repeats. Equal entries are not always repeated. Where two headings read alike, the source gives them in different places.

What was measured:
[1] = tested on: P. tricornutum Bohlin, C. vulgaris, C. socialis, N. laevissima, and N. exigua; test: Diatom growth inhibition assay, whole panel; type: cell-based; conditions: Chlorella vulgaris; selective and moderate activities; read-out: EC50 antialgal, range over compounds and algae
Description: (§1) The antialgal activity against the microalgae P. tricornutum Bohlin, C. vulgaris, C. socialis, N. laevissima, and N. exigua was evaluated by the method of Ortlepp et al. ([2008]). Briefly, the microalgae were grown in sterilized BG11 medium under light intensity of 2500 lx and 12 h: 12 h light: dark cycle at temperature of 20 ℃. The microalgae were grown to reach the logarithmic phase (approximately 5 × 10^5 cells/ml), which were used for microalgae growth inhibition assay. The compounds 1–71 were first dissolved in a small amount of DMSO and then diluted with 0.22 μm of filtered seawater (FSW) to achieve a range of concentrations from 0.625 to 50 μg/ml. Ten microliters of the compound solution was added to multiwell Petri dishes containing a 1-mL suspension of the microalgae (approximately 12 × 10^4 cells/ml). FSW with DMSO was used as a negative control, and solutions of SeaNine 211 in seawater were used as positive controls. After the plates were incubated for 48 h (16 ± 1 ℃) under continuous light, the FSW with non-attached microalgae was removed. The amount of chlorophyll a in attached microalgae was determined with a spectrophotometer (Beckman, model DU650, USA). Then the EC50 (inhibits 50% of settlement of cyprids in comparison with the control) was calculated using the Probit software program.

N. exigua = test: Diatom growth inhibition assay (antialgal activity); type: cell-based, Navicula exigua
Description: as §1

C. socialis = test: as above; type: cell-based, Chaetoceros socialis; conditions: 48 h, read-out: EC50 C. socialis
Description: as §1

P. tricornutum Bohlin = test: as above; type: cell-based, Phaeodactylum tricornutum Bohlin; conditions: 48 h, read-out: EC50 P. tricornutum
Description: as §1

C. vulgaris = test: as above; type: cell-based, Chlorella vulgaris; conditions: 48 h, read-out: EC50 C. vulgaris
Description: as §1

N. laevissima = test: as above; type: cell-based, Navicula laevissima; conditions: 48 h, read-out: EC50 N. laevissima
Description: as §1

[2] = tested on: chloroquine sensitive HB3 strain of P. falciparum; test: In vitro antiplasmodial assay (Pico-Green growth inhibition); type: cell-based, Plasmodium falciparum; conditions: for P. falciparum SI, Selectivity Index (CC50/IC50): CC50 HUVEC / IC50 P. falciparum; for IC50: Plasmodium falciparum; for antiplasmodial activity against P. falciparum (in words): structure-activity discussion
Description: In vitro antiplasmodial activity was performed by culturing human erythrocytes and infecting them with P. falciparum, as reported by Trager and Jensen ([1976]). Briefly, the chloroquine sensitive HB3 strain of P. falciparum-infected O + erythrocytes was cultured in RPMI 1640 medium supplemented with 10% human serum (from O + blood) at a hematocrit of 2% erythrocytes at 37 °C with a gas mixture containing 90% N2, 5% CO2, and 5% O2. Parasites were synchronized with 5% D-sorbitol (Lambros and Vanderberg [1979]). P. falciparum growth inhibition bioassays were performed with the procedure as described by Corbett et al. ([2004]), which used Pico-Green, a double stranded-DNA fluorescent dye to test the effect of compounds.

[3] = In vitro cytotoxicity (CC50); type: cell-based; conditions: human, HUVEC cells
Description: Toxicity is a major concern of drug discovery and development, and the selectivity index (SI) is used as the evaluation parameter of drug potential of the test samples by comparing the toxicity on a human cell line (CC50) and the selective inhibitory effect on P. falciparum (IC50) calculated here as CC50/IC50. We decided to evaluate in vitro cytotoxicity of the active derivatives 38, 39, 50, 52, 65, 67, 70, and 71 by determining their 50% cytotoxic concentrations. The results are presented in Table 3, presenting only those CC50 values > 100 μmol/L, reaching selectivity indexes > 10. The cytotoxic concentration at 150 μmol/L was not be determined because of a lack of solubility of the tested molecule in the culture medium. Moreover, the toxicity of these derivatives was also evaluated against two other cell lines: hepatocellular liver carcinoma cell line (Hep G2) and cervical carcinoma (HeLa), finding CC50 values > 100 μmol/L.

zebrafish embryos = test: Zebrafish embryo toxicity test; type: in vivo; conditions: 50 μmol/L, after 24 h
Description: Toxicity assays were carried out using the method of Wang et al. ([2011]). Briefly, the normal embryos were selected and transferred into a 24-well plate. The embryos at 1 h postfertilization (hpf) were exposed by immersion in E3 embryo medium containing the derivative in a 1% (v/v) DMSO final solvent concentration in a 24-well plate. The developmental phenotypes of the experimental status of the embryos were observed every 24 h for 72 h and were photographed with a charge-coupled device (CCD) camera.

[4] = 48 h, chlorophyll a of attached microalgae, read-out: EC50 N. exigua
[5] = Chaetoceros socialis, chlorophyll a of attached microalgae
[6] = Phaeodactylum tricornutum, chlorophyll a of attached microalgae
[7] = Chlorella vulgaris, chlorophyll a of attached microalgae
[8] = Sellaphora laevissima, chlorophyll a of attached microalgae
[9] = Erythrocyte, HB3 strain in human erythrocytes, read-out: P. falciparum IC50
[10] = 48 h, chlorophyll a of attached microalgae; read-out: EC50 N. exigua
[11] = chlorophyll a of attached microalgae

Compound | EC50 [1] [µM] | EC50 (N. exigua; [4]) [µM] | EC50 (C. socialis; [5]) [µM] | EC50 (P. tricornutum Bohlin; [6]) [µM] | EC50 (C. vulgaris; [7]) [µM] | EC50 (N. laevissima; [8]) [µM] | IC50 [2, 9] [µM] | also measured
[2H]C([2H])([2H])C1(C([2H])([2H])[2H])OC2C=CCC(C)OC(=O)c3c(cc(OC)cc3OCc3ccccc3Br)C=CCC(O)C2O1 (stereo not shown) [Compound 58] | 11 to 32.5 | 20.1 | > 10 | 28.2 | 15.9 | > 10 | – | –
CCC(=O)Oc1cc(OC)c(Cl)c2c1C(=O)OC(C)CC=CC(OC(=O)CC)C(OC(=O)CC)C(OC(=O)CC)CC=C2 (stereo not shown) [Compound 70] | – | – | – | – | – | – | 6.91 | P. falciparum SI, Selectivity Index (CC50/IC50) [2]: > 14; CC50 [3]: > 100 µM
COc1cc(COc2cc(OC)cc3c2C(=O)OC(C)CC=CC(O)C(O)C(O)CC=C3)cc(OC)c1 (stereo not shown) [Compound 12] | 11 to 32.5 | > 10 | > 10 | 32.5 | > 10 | 20 | – | –
COc1cc(COc2cc(OC)c(Cl)c3c2C(=O)OC(C)CC=CC2OC(C)(C)OC2C(O)CC=C3)cc(OC)c1 (stereo not shown) [Compound 50] | – | – | – | – | – | – | 7.82 | P. falciparum SI, Selectivity Index (CC50/IC50) [2]: > 12; antiplasmodial activity against P. falciparum (in words) [2]: active; CC50 [3]: > 100 µM
COc1cc(O)c2c(c1)/C=C/C[C@H](O)[C@H](O)[C@@H](O)/C=C/C[C@H](C)OC2=O [Compound 1, zeaenol] | – | – | – | – | – | – | – | EC50 (N. exigua; 48 h, read-out: EC50 N. exigua): 23.9 µM; EC50 (C. socialis; Chaetoceros socialis): 25.4 µM; EC50 (P. tricornutum Bohlin; Phaeodactylum tricornutum): 12.6 µM; EC50 (C. vulgaris; Chlorella vulgaris): > 10 µM; EC50 (N. laevissima; Sellaphora laevissima): 8.79 µM
COc1cc2c(c(OCc3ccc4ccccc4c3)c1)C(=O)OC(C)CC=CC(O)C(O)C(O)CC=C2 (stereo not shown) [Compound 14] | 11 to 32.5 | 18.5 | 17.2 | > 10 | > 10 | 20.4 | – | death of zebrafish embryos (zebrafish embryos): all embryos died
COc1cc2c(c(OCc3ccc(C(F)(F)F)cc3)c1)C(=O)OC(C)CC=CC1OC(C)(C)OC1C(O)CC=C2 (stereo not shown) [Compound 45] | 11 to 32.5 | 18.3 | > 10 | > 10 | 13 | 27.4 | – | –
COc1cc2c(c(OCc3cc(F)cc(F)c3)c1)C(=O)OC(C)CC=CC(O)C(O)C(O)CC=C2 (stereo not shown) [Compound 15] | 11 to 32.5 | 18.8 | 15 | 33.1 | > 10 | > 10 | – | –
COc1cc(OC(=O)C(C)(C)C)c2c(c1Cl)C=CCC(O)C(O)C(O)C=CCC(C)OC2=O (stereo not shown) [Compound 3] | 11 to 32.5 | > 10 | > 10 | 22.3 | 30.9 | > 10 | – | –
[2H]C([2H])([2H])C1(C([2H])([2H])[2H])OC2C=CCC(C)OC(=O)c3c(cc(OC)cc3OCc3cccc(F)c3)C=CCC(O)C2O1 (stereo not shown) [Compound 60] | – | – | – | – | – | – | – | antiplasmodial activity against P. falciparum (in words) [2]: active
COCC(=O)Oc1cc(OC)cc2c1C(=O)O[C@@H](C)C/C=C/[C@H](O)[C@@H](O)[C@@H](O)C/C=C/2 [Compound 34] | – | 8.76 | > 10 | 16.2 | 12.1 | 8.55 | – | EC50 (N. exigua; [10]): 8.55 µM; antiplasmodial activity against P. falciparum (in words) [2]: moderate activity; EC50 (N. laevissima; [11]): 8.76 µM
[2H]C([2H])([2H])C1(C([2H])([2H])[2H])OC2C=CCC(C)OC(=O)c3c(cc(OC)cc3OCc3ccc(-c4ccccc4C#N)cc3)C=CCC(O)C2O1 (stereo not shown) [Compound 65] | – | – | – | – | – | – | 7.82 | P. falciparum SI, Selectivity Index (CC50/IC50) [2]: > 12; CC50 [3]: > 100 µM
CCC(=O)Oc1cc(OC)cc2c1C(=O)OC(C)CC=CC(OC(=O)CC)C(OC(=O)CC)C(OC(=O)CC)CC=C2 (stereo not shown) [Compound 69] | – | – | – | – | – | – | 9.18 | –
CCCCCCCCn1sc(Cl)c(Cl)c1=O [SeaNine 211, reference compound] | – | – | – | – | – | – | – | EC50 (N. exigua; [10]): 9.74 µM and 9.47 µM; EC50 (C. socialis; [11]): 1.87 µM; EC50 (P. tricornutum Bohlin; [11]): 0.74 µM; EC50 (C. vulgaris; [11]): 6.52 µM; EC50 (N. laevissima; [11]): 2.9 µM
COC(=O)c1ccc(COc2cc(OC)c(Cl)c3c2C(=O)OC(C)CC=CC2OC(C)(C)OC2C(O)CC=C3)cc1 (stereo not shown) [Compound 52] | – | – | – | – | – | – | 9.72 | P. falciparum SI, Selectivity Index (CC50/IC50) [2]: > 10; CC50 [3]: > 100 µM
COc1cc(COc2cc(OC)c(Cl)c3c2C(=O)OC(C)CC=CC(O)C(O)C(O)CC=C3)cc(OC)c1 (stereo not shown) [Compound 13] | 11 to 32.5 | > 10 | 24 | 14 | > 10 | 16.9 | 12.6 | antiplasmodial activity against P. falciparum (in words) [2]: active
CCC(=O)Oc1cc(OC)cc2c1C(=O)OC(C)CC=CC1OC(C)(C)OC1C(O)CC=C2 (stereo not shown) [Compound 30] | – | – | – | – | – | – | 12.4 | antiplasmodial activity against P. falciparum (in words) [2]: moderate activity
COc1cc2c(c(OCc3ccccc3Br)c1)C(=O)OC(C)CC=CC(O)C(O)C(O)CC=C2 (stereo not shown) [Compound 9] | – | 19.2 | < 10 | < 10 | > 10 | < 10 | – | EC50 (C. socialis; [11]): 9 µM; EC50 (P. tricornutum Bohlin; [11]): 6.99 µM; EC50 (N. laevissima; [11]): 6.67 µM
[2H]C([2H])([2H])C1(C([2H])([2H])[2H])OC2C=CCC(C)OC(=O)c3c(cc(OC)cc3OCc3cccc(C)c3)C=CCC(O)C2O1 (stereo not shown) [Compound 62] | 11 to 32.5 | 14.2 | 25.8 | > 10 | 16.3 | > 10 | – | –
CCN(CC)CCCC(C)Nc1ccnc2cc(Cl)ccc12 (stereo not shown) [Chloroquine, reference compound] | – | – | – | – | – | – | – | IC50 ([2]; HB3, Erythrocyte, read-out: P. falciparum IC50): 37.9 µM; IC50 ([2]; HB3, read-out: P. falciparum IC50 (positive control, methods)): 0.0329 µM
COc1cc(OC(=O)C(C)(C)C)c2c(c1Cl)C=CCC(OC(=O)C(C)(C)C)C(O)C(OC(=O)C(C)(C)C)C=CCC(C)OC2=O (stereo not shown) [Compound 71] | – | – | – | – | – | – | 3.54 | P. falciparum SI, Selectivity Index (CC50/IC50) [2]: > 28; CC50 [3]: > 100 µM
COc1cc2c(c(OCc3ccc(Br)cc3F)c1)C(=O)OC(C)CC=CC(O)C(O)C(O)CC=C2 (stereo not shown) [Compound 24] | 11 to 32.5 | 10.2 | > 10 | 11.2 | > 10 | 22.4 | – | –
COCC(=O)Oc1cc(OC)c(Cl)c2c1C(=O)OC(C)CC=CC1OC(C)(C)OC1C(OC(=O)COC)CC=C2 (stereo not shown) [Compound 35] | – | – | – | – | – | – | 11.6 | –
COc1cc2c(c(OCc3ccccc3)c1)C(=O)OC(C)CC=CC(O)C(O)C(O)CC=C2 (stereo not shown) [Compound 4] | 11 to 32.5 | 11 | > 10 | 21 | > 10 | 13.6 | – | –
[2H]C([2H])([2H])C1(C([2H])([2H])[2H])OC2C=CCC(C)OC(=O)c3c(cc(OC)cc3OCc3ccc(-c4ccccc4C(=O)OC)cc3)C=CCC(O)C2O1 (stereo not shown) [Compound 67] | – | – | – | – | – | – | 7.25 | P. falciparum SI, Selectivity Index (CC50/IC50) [2]: > 13; CC50 [3]: > 100 µM
